The values that follow come from US10188630B2, “Methods for identifying and using inhibitors of casein kinase 1 epsilon isoform for inhibiting the growth and/or proliferation of MYC-driven tumor cells” (Fred Hutchinson Cancer Research Center, priority 2010, dated 2019).

Test [1] concerns IMR-32 cells (amplified MYCN expression). Nature of the test: Microscopic analysis of neuroblastoma cells after IC261. It counts as cell-based. Particulars: 48 hours; 0.1 μM or 1.0 μM IC261. The method, then: (§1) Microscopic analysis of the SN-N-AS (normal MYCN expression) and IMR-32 (amplified MYCN expression) neuroblastoma cell lines, further supporting the differential effect of the CSNK1ε inhibitor, IC261, on the health and proliferation of neuroblastoma cells overexpressing MYCN. Referring to FIG. 5, top line, micrographs are provided illustrating SK-N-AS (normal MYCN expression) cells in culture before and 48 hours after culture with DMSO, 0.33 μM, or 3.3 μM IC261. Referring to FIG. 5, bottom line, micrographs are provided illustrating IMR-32 cells (amplified MYCN expression) in culture before and 48 hours after culture with DMSO, 0.1 μM, or 1.0 μM IC261.

Test [2] relates to SK-N-AS (normal MYCN expression) cells. Described as above. Format: cell-based. Particulars: 48 hours; 0.33 μM or 3.3 μM IC261. As for the experimental part:
as §1

Test [3] relates to WNT signaling (β-catenin reporter) in Tet-21N neuroblastoma cells. As to the kind of experiment: Integrated WNT reporter in Tet-21N neuroblastoma cells. It counts as cell-based. Particulars: MYCN-on cells. The method, then:
(§2) CSNK1ε has been implicated as a positive regulator of WNT signaling (Sakanaka, C., “Phosphorylation and Regulation of Beta-Catenin by Casein Kinase I Epsilon,” J Biochem 132:697-703, 2002). To determine the functional status of WNT activity in neuroblastoma cells with or without amplified MYCN expression, a WNT dual reporter system, employing both consensus (TOP) and mutant (FOP) TCF binding sites was assayed in neuroblastoma cell lines SK-N-AS (MYCN not amplified), SH-Sy5Y (MYCN not amplified), IMR-32 (MYCN amplified and overexpressed), and SK-N-BE2 (MYCN amplified and overexpressed), as described in (Biechele, T. L., et al., “Transcription-Based Reporters of Wnt/beta-Catenin Signaling,” Cold Spring Harb Protoc 2009, pdb prot5223).
A potential direct connection of WNT with MYCN expression was explored utilizing neuroblastoma cells expressing an inducible Tet-MYCN gene. Tet-21N neuroblastoma cells (normal MYCN expression) carrying a Tet-off-MYCN gene, were treated with or without Dox (a tetracycline compound), as described supra. […] Further, the WNT activity was assayed through the detectable activity of an integrated WNT reporter.

In test [4] the test system is WNT signaling (β-catenin activity) in COLO720E ovarian cells. As to the kind of experiment: Relative β-catenin activity (WNT signaling) in COLO720E ovarian cells. The settings on record: higher doses of IC261 (0, 0.67, 3.3, 6.67 μM tested). It counts as cell-based, human. As for the experimental part: as §2
The impact of stable knock-down of CSNK1ε was assessed for the expression for WNT signal function. To confirm the efficacy of the stable knockdown technique in ovarian cells, Dox-inducible lentivirus constructs encoding shRNAs targeting CSNK1ε were transduced into COLO720E ovarian cells. […] Next, to assess the WNT signaling activity, relative β-catenin activity was assayed as described, supra, for COLO720E ovarian cells transduced with the shRNA encoding lentivirus targeting CSNK1ε. […] A similar effect on relative β-catenin activity was observed upon administration of IC261, the inhibitor of CSNK1ε. […]

Test [5] concerns TOV112D/Luc human ovarian cancer cells. Nature of the test: Peritoneal carcinomatosis model mice (TOV112D/Luc intraperitoneal xenograft). It counts as in vivo. The method, then: The effect of CSNK1ε on the cell viability of ovarian cancer cells was then investigated in vivo. Peritoneal carcinomatosis model mice were generated by the intraperitoneal injection of TOV112D/Luc cells. After one week, the mice were randomized into control and experimental groups, which then received daily injections of IC261 or DMSO carrier for three weeks. Weekly Luc imaging was performed for each mouse at the termination of each week of the experiment to monitor the relative viability of cancer cells that have established in the mice. […] As illustrated in the survival graph in FIG. 11B, the DMSO group and IC261 treatment groups diverged in percent survival starting at day 30 when the DMSO group began to experience drastic mortality.

The subject of test [6] is CaOV3 cells (normal c-MYC expression). Nature of the test: Cell cycle analysis (Propidium Iodide staining, FACS). Format: cell-based, human. Particulars: 1 μM IC261; 16 and 24 hours. As for the experimental part: (§3) Ovarian cancer cell lines with normal (i.e., low) and amplified expression of c-MYC were assessed for the impact of the CSNK1ε inhibitor IC261 on the progression of the cell cycle. CaOV3 cells (normal c-MYC expression) and TOV112D cells (amplified c-MYC expression) were cultured in 1 μM IC261. The cells were assessed for the state of the cell cycle, namely G1, S-phase, and G2, at time points before and 16 and 24 hours after contact with IC261 by Propidium Iodide staining followed by FACS analysis. […] However, the levels were lower for the cells with amplified c-MYC expression. […] This trend was not observed for the cancer cells with normal c-MYC expression.

The subject of test [7] is TOV112D cells (amplified c-MYC expression). Described as above. Particulars: 1 μM IC261; 16 and 24 hours. It counts as cell-based, human. As for the experimental part: as §3

SMILES strings stand for the structures.

For the compound `COc1cc(OC)c(/C=C2/C(=O)Nc3ccccc32)c(OC)c1` [IC261], the “cell appearance in micrographs” value in test [1] was “detached from the plate surface and balled up”; in test [2], “maintained healthy spreading and attachment”. The “WNT reporter (β-catenin signal)” value in test [3] is listed as “repression of the WNT reporter”. The “relative β-catenin activity” value in test [4] is reported as “reduced by more than two thirds”. Further, the “survival vs DMSO group” value in test [5] (daily injections for three weeks, groups diverged starting at day 30) is listed as “prolonged the life of the subjects”. In addition, in test [5] (daily injections, after two weeks), the “cancer cell proliferation and viability (Luc imaging) vs DMSO” value was “significantly reduced cancer cell proliferation and viability”. Further, the “difference among treatment groups (Luc imaging)” value in test [5] (week four) was “much more pronounced”. Besides, the “cells in the G2 phase” value is “small and transient ability to cause cell cycle arrest in G2” in test [6]; “arrested at the G2 checkpoint” in test [7]. The “percentage of cells in the G1 phase” value in test [6] and in test [7] was “drastically reduced” each time.
